In patent US20220125765A1, “PHARMACEUTICAL COMBINATIONS COMPRISING MEBENDAZOLE AND A STRONG OR MODERATE CYP1A2 INHIBITOR” (ZEPHAPHARM LTD, priority 2019, published 2022):
Read-outs that look alike come from different tables or passages of the source.

Assays:
SXFO U-2-OS = experiment: 2D monolayer CellTiter-Blue viability, osteosarcoma U-2-OS; type: cell-based; details: 72 h
Experimental: (§1) Seventeen compounds, including mebendazole (Batch no. […] Efficacy of compounds was assessed using CellTiter-Blue® Cell Viability Assay. Anti-tumor activity is expressed as absolute and relative IC50 and IC70 values, calculated by non-linear regression analysis.

in vitro [1] = details: human, hepatocytes, t½
Experimental: Mebendazole (1 μM) was incubated with cryopreserved human hepatocytes for 60 min in the absence and presence of cimetidine at 30, 100 and 300 μM) and thiabendazole at 10, 30 and 100 μM and samples taken at the required time points. The amount of test compound remaining at each time point was analysed by LC-MS/MS. Appropriate control compounds were also incubated along with ethoxycoumarin, which was incubated in the absence and presence of cimetidine and thiabendazole.
The final incubation volume was 500 μL. Two control compounds were included, alongside appropriate vehicle control. A positive control compound, ethoxycoumarin, for CYP1A2 was included. The positive control compound was incubated without inhibitor and in the presence of each inhibitor. The reactions were stopped by transferring 50 μL of incubate to 100 μL acetonitrile containing internal standard at the appropriate time points (0, 5, 10, 20, 40 and 60 min). The termination plates were centrifuged at 2500 rpm at 4° C. for 30 min to precipitate the protein.

RXF 1183L = experiment: 2D monolayer CellTiter-Blue viability, renal cancer RXF 1183L; type: cell-based; details: for Test/Control (%) at Drug Concentration: 72 h
Experimental: Mebendazole was tested in vitro across a panel of 12 tumor cell lines of ovarian and renal cancer by using a 2D monolayer assay. […] OVXF 899L and RXF 486L are P-gp expressing, multidrug resistant cell lines.
Anti-tumor activity is expressed as absolute and relative IC50/70 values, calculated by 4-parameter non-linear curve fit.

in vitro [2] = details: human; for half-life at 1 μM: cryopreserved hepatocytes; for hepatocyte CLint at 1 µM: cryopreserved hepatocytes (suspension)
Experimental: The amount of test compound remaining at each time point was analysed by LC-MS/MS. Appropriate control compounds were also incubated.
The final incubation volume was 500 μL. Appropriate control compounds were included, alongside appropriate vehicle control.
The reactions were stopped by transferring 50 μL of incubate to 100 μL acetonitrile containing internal standard at the appropriate time points (0, 5, 10, 20, 40 and 60 min). The termination plates were centrifuged at 2500 rpm at 4° C. for 30 min to precipitate the protein.

SXFE RD-ES = experiment: 2D monolayer CellTiter-Blue viability, Ewing sarcoma RD-ES; type: cell-based; details: 72 h
Experimental: as §1

NBXF SHEP = experiment: 2D monolayer CellTiter-Blue viability, neuroblastoma SHEP; type: cell-based; details: 72 h
Experimental: as §1

CYP1A2 = target: T1, CYP1A2 (Homo sapiens, UniProt P05177); experiment: Cytochrome P450 reaction phenotyping, recombinant CYP1A2 (Bactosomes); details: for Compound Remaining (% of 0 min): CYP1A2, 5 μM
T1 sequence (P05177 1-516): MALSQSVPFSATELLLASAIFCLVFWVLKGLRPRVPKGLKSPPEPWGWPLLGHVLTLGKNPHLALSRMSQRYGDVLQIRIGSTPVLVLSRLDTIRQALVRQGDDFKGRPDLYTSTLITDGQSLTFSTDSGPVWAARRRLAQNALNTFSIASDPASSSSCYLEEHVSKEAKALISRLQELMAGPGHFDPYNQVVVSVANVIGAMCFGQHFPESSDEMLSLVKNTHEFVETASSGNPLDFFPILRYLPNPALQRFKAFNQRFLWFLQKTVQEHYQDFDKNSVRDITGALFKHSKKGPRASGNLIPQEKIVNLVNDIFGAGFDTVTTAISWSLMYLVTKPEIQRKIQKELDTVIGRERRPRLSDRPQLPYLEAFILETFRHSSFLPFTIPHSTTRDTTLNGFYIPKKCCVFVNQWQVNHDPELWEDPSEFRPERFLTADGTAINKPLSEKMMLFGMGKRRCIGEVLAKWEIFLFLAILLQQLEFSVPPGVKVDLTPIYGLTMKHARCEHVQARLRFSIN
Experimental: Incubations were also performed using control Bactosomes™ (no P450 enzymes present) to reveal any non-enzymatic degradation. Control compounds known to be metabolised specifically by each P450 isoform were included. All incubations were performed singularly for each test compound.
Incubations were also performed using control Bactosomes™ (no P450 enzymes present) to reveal any non-enzymatic degradation. Control compounds known to be metabolised specifically by each P450 isoform were included. All incubations were performed singularly for each test compound. […] The reactions were stopped by transferring an aliquot of incubate to quench solvent at the appropriate time points, in a 1:3 ratio. The termination plates were centrifuged at 3,000 rpm for 20 min at 4° C. to precipitate the protein.

SXFS Hs 729 = experiment: 2D monolayer CellTiter-Blue viability, soft tissue sarcoma Hs 729; type: cell-based; details: 72 h
Experimental: as §1

Compound: COC(=O)Nc1nc2ccc(C(=O)c3ccccc3)cc2[nH]1 [Mebendazole, methyl N-(6-benzoyl-1H-benzimidazol-2-yl)carbamate]
- Test/Control (%) at Drug Concentration (SXFO U-2-OS; 1.0E+00 μM): 38%
- Test/Control (%) at Drug Concentration (SXFO U-2-OS; 1.0E+01 μM): 13%
- Test/Control (%) at Drug Concentration (SXFO U-2-OS; 1.0E+02 μM): 6%
- Test/Control (%) at Drug Concentration (SXFO U-2-OS; 1.0E−01 μM): 82%
- Test/Control (%) at Drug Concentration (SXFO U-2-OS; 1.0E−02 μM): 89%
- Test/Control (%) at Drug Concentration (SXFO U-2-OS; 3.2E+00 μM): 19%
- Test/Control (%) at Drug Concentration (SXFO U-2-OS; 3.2E+01 μM): 11%
- Test/Control (%) at Drug Concentration (SXFO U-2-OS; 3.2E−01 μM): 54%
- Test/Control (%) at Drug Concentration (SXFO U-2-OS; 3.2E−02 μM): 86%
- Test/Control (%) at Drug Concentration (SXFO U-2-OS; 3.2E−03 μM): 85%
- half-life at 1 μM (in vitro [1]): 1.54 h
- Test/Control (%) at Drug Concentration (RXF 1183L; RXF 1183, 1.0E+00 μM): 54%
- Test/Control (%) at Drug Concentration (RXF 1183L; RXF 1183, 1.0E−01 μM): 79%
- Test/Control (%) at Drug Concentration (RXF 1183L; RXF 1183, 1.0E−02 μM): 91%
- Test/Control (%) at Drug Concentration (RXF 1183L; RXF 1183, 1.0E−03 μM): 93%
- Test/Control (%) at Drug Concentration (RXF 1183L; RXF 1183, 1.0E−04 μM): 91%
- Test/Control (%) at Drug Concentration (RXF 1183L; RXF 1183, 3.2E+00 μM): 32%
- Test/Control (%) at Drug Concentration (RXF 1183L; RXF 1183, 3.2E−01 μM): 58%
- Test/Control (%) at Drug Concentration (RXF 1183L; RXF 1183, 3.2E−02 μM): 80%
- Test/Control (%) at Drug Concentration (RXF 1183L; RXF 1183, 3.2E−03 μM): 88%
- Test/Control (%) at Drug Concentration (RXF 1183L; RXF 1183, 3.2E−04 μM): 88%
- Abs. IC70 (RXF 1183L; RXF 1183, 72 h): >3200 nM
- Rel. IC70 (RXF 1183L; RXF 1183, 72 h): >3200 nM
- Bot. (%) (RXF 1183L; RXF 1183, 72 h, curve fit): 0%
- Top (%) (RXF 1183L; RXF 1183, 72 h, curve fit): 91%
- IC50 (RXF 1183L; RXF 1183, 72 h, read-out: Abs. IC50): 925 nM
- IC50 (RXF 1183L; RXF 1183, 72 h, read-out: Rel. IC50): 1310 nM
- half-life at 1 μM (in vitro [2]): 1.92 h
- hepatocyte CLint at 1 µM (in vitro [2]): 12.1 ± 0.601 µL/min/1e6 cells
- hepatocyte CLint at 1 µM (in vitro [2]; with cimetidine 30 µM): 24.8 ± 1.82 µL/min/1e6 cells
- hepatocyte CLint at 1 µM (in vitro [2]; with cimetidine 100 µM): 18 ± 1.19 µL/min/1e6 cells
- hepatocyte CLint at 1 µM (in vitro [2]; with cimetidine 300 µM): 24.8 ± 2.36 µL/min/1e6 cells
- hepatocyte CLint at 1 µM (in vitro [2]; with fluvoxamine 3 µM): 8.14 ± 1.53 µL/min/1e6 cells
- hepatocyte CLint at 1 µM (in vitro [2]; with fluvoxamine 10 μM): 10.8 ± 2.32 µL/min/1e6 cells
- half-life at 1 μM (in vitro [2]; with cimetidine 30 μM): 0.932 h
- half-life at 1 μM (in vitro [2]; with cimetidine 100 μM): 1.29 h
- half-life at 1 μM (in vitro [2]; with cimetidine 300 μM): 0.932 h
- half-life at 1 μM (in vitro [2]; with fluvoxamine 3 μM): 2.83 h
- half-life at 1 μM (in vitro [2]; with fluvoxamine 10 μM): 2.13 h
- half-life at 1 μM (in vitro [2]; with mexiletine 10 μM): 5.1 h
- half-life at 1 μM (in vitro [2]; with mexiletine 30 μM): 2.2 h
- half-life at 1 μM (in vitro [2]; with mexiletine 100 μM): 2 h
- Test/Control (%) at Drug Concentration (SXFE RD-ES; 1.0E+00 μM): 14%
- Test/Control (%) at Drug Concentration (SXFE RD-ES; 1.0E+01 μM): 6%
- Test/Control (%) at Drug Concentration (SXFE RD-ES; 1.0E+02 μM): 3%
- Test/Control (%) at Drug Concentration (SXFE RD-ES; 1.0E−01 μM): 78%
- Test/Control (%) at Drug Concentration (SXFE RD-ES; 1.0E−02 μM): 88%
- Test/Control (%) at Drug Concentration (SXFE RD-ES; 3.2E+00 μM): 7%
- Test/Control (%) at Drug Concentration (SXFE RD-ES; 3.2E+01 μM): 5%
- Test/Control (%) at Drug Concentration (SXFE RD-ES; 3.2E−01 μM): 29%
- Test/Control (%) at Drug Concentration (SXFE RD-ES; 3.2E−02 μM): 84%
- Test/Control (%) at Drug Concentration (SXFE RD-ES; 3.2E−03 μM): 93%
- Test/Control (%) at Drug Concentration (NBXF SHEP; 1.0E+00 μM): 20%
- Test/Control (%) at Drug Concentration (NBXF SHEP; 1.0E+01 μM): 20%
- Test/Control (%) at Drug Concentration (NBXF SHEP; 1.0E+02 μM): 16%
- Test/Control (%) at Drug Concentration (NBXF SHEP; 1.0E−01 μM): 72%
- Test/Control (%) at Drug Concentration (NBXF SHEP; 1.0E−02 μM): 72%
- Test/Control (%) at Drug Concentration (NBXF SHEP; 3.2E+00 μM): 27%
- Test/Control (%) at Drug Concentration (NBXF SHEP; 3.2E+01 μM): 18%
- Test/Control (%) at Drug Concentration (NBXF SHEP; 3.2E−01 μM): 47%
- Test/Control (%) at Drug Concentration (NBXF SHEP; 3.2E−02 μM): 68%
- Test/Control (%) at Drug Concentration (NBXF SHEP; 3.2E−03 μM): 72%
- Compound Remaining (% of 0 min) (CYP1A2; 0 min): 100 % of 0 min
- Compound Remaining (% of 0 min) (CYP1A2; 5 min): 80.1 % of 0 min
- Compound Remaining (% of 0 min) (CYP1A2; 15 min): 45.8 % of 0 min
- Compound Remaining (% of 0 min) (CYP1A2; 30 min): 20.7 % of 0 min
- Compound Remaining (% of 0 min) (CYP1A2; 45 min): 9.88 % of 0 min
- half-life at 5 μM (CYP1A2; human, recombinant CYP1A2 (Bactosomes), pH 7.4): 0.222 h
- Test/Control (%) at Drug Concentration (SXFS Hs 729; Hs 729, 1.0E+00 μM): 65%
- Test/Control (%) at Drug Concentration (SXFS Hs 729; Hs 729, 1.0E+01 μM): 44%
- Test/Control (%) at Drug Concentration (SXFS Hs 729; Hs 729, 1.0E+02 μM): 12%
- Test/Control (%) at Drug Concentration (SXFS Hs 729; Hs 729, 1.0E−01 μM): 90%
- Test/Control (%) at Drug Concentration (SXFS Hs 729; Hs 729, 1.0E−02 μM): 91%
- Test/Control (%) at Drug Concentration (SXFS Hs 729; Hs 729, 3.2E+00 μM): 56%
- Test/Control (%) at Drug Concentration (SXFS Hs 729; Hs 729, 3.2E+01 μM): 35%
- Test/Control (%) at Drug Concentration (SXFS Hs 729; Hs 729, 3.2E−01 μM): 84%
- Test/Control (%) at Drug Concentration (SXFS Hs 729; Hs 729, 3.2E−02 μM): 89%
- Test/Control (%) at Drug Concentration (SXFS Hs 729; Hs 729, 3.2E−03 μM): 93%
